This assay addresses Induced myeloid leukemia cell differentiation protein Mcl-1 (Homo sapiens) (UniProt Q07820). The experiment in a line: blockers of MCL1–BIM BH3 interaction – biochemical, fluorescence polarization, GST-MCL1, FITC-BIM-BH3, powder samples, dose response (AID 2791).

The source made the active and inactive calls.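 Rule for the calls: active = blockers of MCL1 binding to BIM peptide with IC50 at or below 10 micromolar; inactive = IC50 above 10 micromolar.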 A value given as a limit tells only on which side of the number the result lay.

Sequence of Induced myeloid leukemia cell differentiation protein Mcl-1 (Homo sapiens) (Q07820 whole entry, looked up): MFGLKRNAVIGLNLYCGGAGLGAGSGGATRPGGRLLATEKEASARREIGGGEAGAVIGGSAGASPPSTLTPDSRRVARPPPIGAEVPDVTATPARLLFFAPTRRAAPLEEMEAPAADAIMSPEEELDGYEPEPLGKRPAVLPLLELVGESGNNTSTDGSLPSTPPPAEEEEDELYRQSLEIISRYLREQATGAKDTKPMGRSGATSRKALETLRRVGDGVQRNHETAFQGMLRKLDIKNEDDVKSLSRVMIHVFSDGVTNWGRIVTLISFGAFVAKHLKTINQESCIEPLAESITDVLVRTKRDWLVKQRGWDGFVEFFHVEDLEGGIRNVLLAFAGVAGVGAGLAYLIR

Usually IC50 stands for the concentration that gives 50% inhibition. Turning to `O=C1COc2ccc(C(=O)COC(=O)/C=C/c3ccc(Br)o3)cc2N1`, the IC50 is > 109 µM (inactive).

With `Cc1cccc(NC(=O)CNC(=O)c2cccc(-n3cccc3)c2)c1C`, the IC50 result was “inactive”.

`C=CCN=c1scc(-c2ccco2)n1/N=C/c1ccc(O)c(O)c1O`: the IC50 is 0.844 µM.

Take `C=CCn1c(SCC(=O)c2ccc(O)c(O)c2)nnc1-c1cccnc1`: the IC50 was 4.09 µM.

As to `O=C(NN=Cc1ccc(-c2ccc(S(=O)(=O)Nc3ncccn3)cc2)o1)c1cc2ccccc2cc1O`, the IC50 is > 109 µM (inactive).

As to `COc1ccc(-n2cccc2/C=C2\C(=N)N3N=C(c4ccco4)SC3=NC2=O)cc1`, the IC50 is 1.45 µM.

For `COc1ccc(NC(=O)CN(C)C(=O)c2cc3c(s2)CCC3)cc1`, the IC50 result was “inactive”.

`COc1ccc(Cc2nnc(NC(=O)Cc3cccs3)s2)cc1OC`: the IC50 was 7.34 µM.

`Nc1ccc(C(=O)NN=Cc2cc(N=Nc3cccc4ccccc34)ccc2O)cc1`: the IC50 is 5.84 µM.

Regarding `CCOc1ccc(NC(=O)c2cccc(-n3cccc3)c2)cc1S(=O)(=O)N1CCOCC1`, the IC50 was > 109 µM (inactive).

For the compound `CCc1sc(C(C2C(=O)CC(C)(C)CC2=O)C2C(=O)CC(C)(C)CC2=O)cc1[N+](=O)[O-]`, the IC50 entry was “inactive”.

In the case of `COC(=O)c1ccccc1NCc1cc(=O)oc2cc(O)c(O)cc12`, the IC50 is 5.01 µM.

In the case of `O=C(NN=Cc1cccc(F)c1)c1cc(-c2ccco2)nc2ccccc12`, the IC50 is 6.88 µM.

The record behind these values is PubChem BioAssay AID2791 (The Scripps Research Institute Molecular Screening Center, 2010).
